Consider one compound from patent US9422267B2, “Fused pyrimidine compounds and use thereof” (Medivation Technologies, Inc., priority 2012, dated 2016).

Each structure is given as a SMILES string.

Holding throughout (format): biochemical
The target of one assay is T1, Arg (Homo sapiens, UniProt P42684).
T1 construct: purchased Caliper LifeSciences (ProfilerPro Kinase Selectivity Assay Kits)
The assay can be described thus: Caliper kinase profiling: Arg.

In a further assay the target is T2, EPHA1 (Homo sapiens, UniProt P21709).
T2 sequence (P21709 26-976): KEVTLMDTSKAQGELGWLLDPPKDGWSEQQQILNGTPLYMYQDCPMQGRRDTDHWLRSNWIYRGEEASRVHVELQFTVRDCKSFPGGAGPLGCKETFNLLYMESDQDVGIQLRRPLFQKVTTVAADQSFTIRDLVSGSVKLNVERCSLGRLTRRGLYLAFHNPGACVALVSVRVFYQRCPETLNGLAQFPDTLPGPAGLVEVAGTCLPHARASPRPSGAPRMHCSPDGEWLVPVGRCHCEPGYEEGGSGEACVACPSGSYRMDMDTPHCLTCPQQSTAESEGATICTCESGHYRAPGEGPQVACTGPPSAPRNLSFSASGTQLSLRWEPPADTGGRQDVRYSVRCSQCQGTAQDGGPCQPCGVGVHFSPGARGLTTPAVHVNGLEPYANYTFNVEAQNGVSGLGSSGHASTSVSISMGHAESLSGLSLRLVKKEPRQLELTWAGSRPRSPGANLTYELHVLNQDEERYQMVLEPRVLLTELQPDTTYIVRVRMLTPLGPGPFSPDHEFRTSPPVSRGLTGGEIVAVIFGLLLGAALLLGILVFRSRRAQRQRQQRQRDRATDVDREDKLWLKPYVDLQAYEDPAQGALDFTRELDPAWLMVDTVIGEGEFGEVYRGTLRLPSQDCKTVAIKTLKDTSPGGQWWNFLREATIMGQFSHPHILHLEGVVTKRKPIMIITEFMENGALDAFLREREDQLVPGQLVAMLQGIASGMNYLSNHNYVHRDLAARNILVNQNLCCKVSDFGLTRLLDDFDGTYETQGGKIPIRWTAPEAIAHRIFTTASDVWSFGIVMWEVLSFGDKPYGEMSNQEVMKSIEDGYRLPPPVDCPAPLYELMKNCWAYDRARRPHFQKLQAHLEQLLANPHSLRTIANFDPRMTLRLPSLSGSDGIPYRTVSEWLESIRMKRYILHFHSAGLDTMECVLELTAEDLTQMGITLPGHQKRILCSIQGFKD
In words: Caliper kinase profiling: EPHA1.

Another assay has as its target EPHA2 (Homo sapiens, UniProt P29317). The assay can be described thus: Caliper kinase profiling: EPHA2. Particulars: EPHA2, 1 μM; read-out: Average % Inh @ 1 μM.
The target in a further assay is EPHA3 (Homo sapiens, UniProt P29320). The assay can be described thus: Caliper kinase profiling: EPHA3. Conditions: EPHA3, 1 μM; read-out: Average % Inh @ 1 μM.
EPHA3, sequence (P29320 21-983): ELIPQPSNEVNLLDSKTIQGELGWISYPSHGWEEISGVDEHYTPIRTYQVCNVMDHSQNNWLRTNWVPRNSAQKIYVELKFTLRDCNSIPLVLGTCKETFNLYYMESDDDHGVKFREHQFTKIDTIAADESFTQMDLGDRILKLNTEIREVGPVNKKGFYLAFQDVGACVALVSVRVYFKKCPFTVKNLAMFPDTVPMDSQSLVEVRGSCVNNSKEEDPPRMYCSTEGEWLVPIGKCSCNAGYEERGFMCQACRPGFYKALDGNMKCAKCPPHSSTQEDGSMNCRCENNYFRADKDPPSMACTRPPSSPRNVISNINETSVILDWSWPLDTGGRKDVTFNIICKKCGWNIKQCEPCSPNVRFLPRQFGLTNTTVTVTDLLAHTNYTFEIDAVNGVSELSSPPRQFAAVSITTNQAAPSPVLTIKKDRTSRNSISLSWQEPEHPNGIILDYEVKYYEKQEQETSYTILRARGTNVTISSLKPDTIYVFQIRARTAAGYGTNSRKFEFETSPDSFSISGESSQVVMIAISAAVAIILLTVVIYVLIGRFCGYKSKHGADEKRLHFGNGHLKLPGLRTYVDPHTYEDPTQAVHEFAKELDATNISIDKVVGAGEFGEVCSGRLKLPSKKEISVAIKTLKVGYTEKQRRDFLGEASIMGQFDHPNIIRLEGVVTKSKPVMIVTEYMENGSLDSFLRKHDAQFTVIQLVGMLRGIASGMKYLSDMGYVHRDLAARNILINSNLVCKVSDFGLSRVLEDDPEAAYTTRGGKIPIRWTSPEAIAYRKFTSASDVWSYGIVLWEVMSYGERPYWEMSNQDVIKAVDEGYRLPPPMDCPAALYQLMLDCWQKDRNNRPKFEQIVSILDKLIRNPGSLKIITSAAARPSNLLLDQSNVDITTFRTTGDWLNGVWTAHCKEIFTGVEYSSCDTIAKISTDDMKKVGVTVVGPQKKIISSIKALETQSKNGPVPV
In another assay the target is FLT4 (Homo sapiens, UniProt P35916). In words: Caliper kinase profiling: FLT4. Conditions: FLT4, 1 μM; read-out: Average % Inh @ 1 μM.
FLT4, sequence (P35916 25-1363): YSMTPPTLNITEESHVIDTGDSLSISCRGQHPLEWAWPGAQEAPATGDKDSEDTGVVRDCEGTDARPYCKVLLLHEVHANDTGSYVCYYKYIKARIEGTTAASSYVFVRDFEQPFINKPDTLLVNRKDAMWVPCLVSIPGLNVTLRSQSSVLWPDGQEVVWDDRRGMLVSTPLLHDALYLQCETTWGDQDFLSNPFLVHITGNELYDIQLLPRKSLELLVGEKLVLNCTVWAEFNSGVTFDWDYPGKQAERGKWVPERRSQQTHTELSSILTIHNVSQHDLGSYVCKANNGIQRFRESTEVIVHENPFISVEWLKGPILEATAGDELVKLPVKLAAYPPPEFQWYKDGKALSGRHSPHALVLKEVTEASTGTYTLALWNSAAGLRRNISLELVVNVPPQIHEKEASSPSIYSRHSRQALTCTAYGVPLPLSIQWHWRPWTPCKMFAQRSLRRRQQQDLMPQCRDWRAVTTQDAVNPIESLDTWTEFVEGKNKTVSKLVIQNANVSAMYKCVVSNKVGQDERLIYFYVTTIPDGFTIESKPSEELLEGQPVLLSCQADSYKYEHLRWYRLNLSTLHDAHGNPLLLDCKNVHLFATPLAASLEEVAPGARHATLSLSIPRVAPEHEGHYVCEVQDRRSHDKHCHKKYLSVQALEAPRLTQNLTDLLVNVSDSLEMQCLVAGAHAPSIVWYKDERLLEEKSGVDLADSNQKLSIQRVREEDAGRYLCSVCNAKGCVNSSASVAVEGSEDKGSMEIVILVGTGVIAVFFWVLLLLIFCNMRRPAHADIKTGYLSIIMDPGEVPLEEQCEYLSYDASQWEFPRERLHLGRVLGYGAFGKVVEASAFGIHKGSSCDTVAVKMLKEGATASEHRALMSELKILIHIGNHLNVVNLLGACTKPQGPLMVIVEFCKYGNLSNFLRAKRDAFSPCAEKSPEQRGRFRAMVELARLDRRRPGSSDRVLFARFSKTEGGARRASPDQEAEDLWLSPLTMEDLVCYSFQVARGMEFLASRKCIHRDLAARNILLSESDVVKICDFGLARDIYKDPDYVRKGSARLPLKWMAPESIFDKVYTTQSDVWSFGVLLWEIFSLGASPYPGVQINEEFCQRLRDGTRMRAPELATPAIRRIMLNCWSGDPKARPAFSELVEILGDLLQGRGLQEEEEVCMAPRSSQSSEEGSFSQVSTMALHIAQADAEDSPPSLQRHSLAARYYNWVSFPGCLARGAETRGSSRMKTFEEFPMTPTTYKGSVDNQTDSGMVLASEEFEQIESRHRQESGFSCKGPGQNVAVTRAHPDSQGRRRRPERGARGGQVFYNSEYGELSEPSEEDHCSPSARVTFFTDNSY
For the next assay, the target named is FRK (Homo sapiens, UniProt P42685). In words: Caliper kinase profiling: FRK. Conditions: read-out: Average % Inh @ 1 μM.
FRK, sequence (P42685 whole entry): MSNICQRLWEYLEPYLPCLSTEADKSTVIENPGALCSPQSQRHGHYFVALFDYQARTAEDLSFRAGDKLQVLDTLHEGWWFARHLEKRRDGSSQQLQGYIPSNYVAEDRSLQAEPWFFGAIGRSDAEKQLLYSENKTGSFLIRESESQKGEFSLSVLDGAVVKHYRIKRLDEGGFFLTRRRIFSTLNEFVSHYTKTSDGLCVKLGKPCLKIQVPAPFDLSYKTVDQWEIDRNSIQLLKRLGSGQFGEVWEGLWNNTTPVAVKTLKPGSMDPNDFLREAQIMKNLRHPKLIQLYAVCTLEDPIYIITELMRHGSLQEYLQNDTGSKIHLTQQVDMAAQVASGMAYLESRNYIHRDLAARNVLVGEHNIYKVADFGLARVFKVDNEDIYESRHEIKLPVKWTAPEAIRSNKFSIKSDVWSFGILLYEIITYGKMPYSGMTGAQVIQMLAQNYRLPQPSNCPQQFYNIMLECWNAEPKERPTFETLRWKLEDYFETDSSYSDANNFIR
The target in another assay is LTK (Homo sapiens, UniProt P29376). In words: Caliper kinase profiling: LTK. Particulars: read-out: Average % Inh @ 1 μM.
LTK, sequence (P29376 17-864): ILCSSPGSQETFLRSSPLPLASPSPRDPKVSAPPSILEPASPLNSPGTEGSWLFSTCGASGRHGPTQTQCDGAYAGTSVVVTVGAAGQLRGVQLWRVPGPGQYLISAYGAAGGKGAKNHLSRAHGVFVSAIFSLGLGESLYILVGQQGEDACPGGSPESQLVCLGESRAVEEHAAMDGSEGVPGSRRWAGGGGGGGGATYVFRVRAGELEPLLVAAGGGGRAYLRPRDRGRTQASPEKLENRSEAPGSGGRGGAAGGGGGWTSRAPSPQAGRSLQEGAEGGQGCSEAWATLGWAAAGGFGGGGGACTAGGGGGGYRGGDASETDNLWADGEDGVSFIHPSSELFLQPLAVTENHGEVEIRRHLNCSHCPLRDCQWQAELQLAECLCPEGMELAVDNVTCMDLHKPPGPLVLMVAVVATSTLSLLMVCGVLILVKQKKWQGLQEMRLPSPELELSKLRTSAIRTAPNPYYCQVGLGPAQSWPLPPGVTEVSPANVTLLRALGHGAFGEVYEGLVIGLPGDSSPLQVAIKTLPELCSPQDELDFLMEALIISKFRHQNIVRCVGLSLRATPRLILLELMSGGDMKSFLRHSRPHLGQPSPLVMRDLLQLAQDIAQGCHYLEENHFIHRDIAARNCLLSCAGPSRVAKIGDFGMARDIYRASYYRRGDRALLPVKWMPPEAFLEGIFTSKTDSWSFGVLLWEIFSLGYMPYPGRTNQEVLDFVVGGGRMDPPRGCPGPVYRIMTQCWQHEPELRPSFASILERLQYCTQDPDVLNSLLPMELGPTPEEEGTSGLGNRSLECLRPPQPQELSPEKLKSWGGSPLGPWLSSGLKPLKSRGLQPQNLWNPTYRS
For a further assay, the target named is T3, MST1 (Homo sapiens, UniProt Q13043).
T3 sequence (Q13043 1-487): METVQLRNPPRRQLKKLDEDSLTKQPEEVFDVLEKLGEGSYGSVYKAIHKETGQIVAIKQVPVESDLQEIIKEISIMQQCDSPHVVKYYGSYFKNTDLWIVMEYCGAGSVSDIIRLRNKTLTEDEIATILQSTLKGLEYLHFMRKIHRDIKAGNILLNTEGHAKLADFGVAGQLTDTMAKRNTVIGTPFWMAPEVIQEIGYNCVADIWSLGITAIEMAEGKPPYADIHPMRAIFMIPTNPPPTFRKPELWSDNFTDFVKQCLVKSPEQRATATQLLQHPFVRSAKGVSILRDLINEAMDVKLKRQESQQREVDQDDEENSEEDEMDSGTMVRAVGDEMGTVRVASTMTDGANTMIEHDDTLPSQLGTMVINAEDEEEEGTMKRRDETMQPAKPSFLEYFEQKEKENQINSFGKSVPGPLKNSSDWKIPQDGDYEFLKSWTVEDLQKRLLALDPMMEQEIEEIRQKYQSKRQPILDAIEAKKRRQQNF
In words: Caliper kinase profiling: MST1.

Another assay concerns the target T4, TYRO3 (Homo sapiens, UniProt Q06418).
T4 sequence (Q06418 41-890): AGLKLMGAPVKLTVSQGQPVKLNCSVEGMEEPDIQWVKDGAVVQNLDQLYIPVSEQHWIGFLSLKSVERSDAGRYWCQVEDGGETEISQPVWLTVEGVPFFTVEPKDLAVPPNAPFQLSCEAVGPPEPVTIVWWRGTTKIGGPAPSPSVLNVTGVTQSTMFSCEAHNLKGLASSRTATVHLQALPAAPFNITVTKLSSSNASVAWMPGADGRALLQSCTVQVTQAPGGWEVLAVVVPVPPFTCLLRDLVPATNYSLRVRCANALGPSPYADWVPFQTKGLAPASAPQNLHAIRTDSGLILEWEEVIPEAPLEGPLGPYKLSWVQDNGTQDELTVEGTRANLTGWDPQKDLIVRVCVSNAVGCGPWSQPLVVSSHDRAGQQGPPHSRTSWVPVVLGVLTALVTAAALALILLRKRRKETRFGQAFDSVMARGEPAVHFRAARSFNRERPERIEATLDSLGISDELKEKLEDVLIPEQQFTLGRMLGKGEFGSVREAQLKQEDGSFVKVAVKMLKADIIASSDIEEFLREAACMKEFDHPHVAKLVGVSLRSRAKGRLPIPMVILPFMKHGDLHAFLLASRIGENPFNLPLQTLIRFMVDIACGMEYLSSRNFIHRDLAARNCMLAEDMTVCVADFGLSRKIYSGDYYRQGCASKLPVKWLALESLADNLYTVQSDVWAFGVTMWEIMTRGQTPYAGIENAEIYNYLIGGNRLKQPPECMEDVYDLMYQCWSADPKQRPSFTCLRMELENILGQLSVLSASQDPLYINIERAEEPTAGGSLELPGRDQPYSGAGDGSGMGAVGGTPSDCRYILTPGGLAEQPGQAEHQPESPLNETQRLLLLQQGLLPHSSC
In words: Caliper kinase profiling: TYRO3.

T1 sequence (P42684 whole entry): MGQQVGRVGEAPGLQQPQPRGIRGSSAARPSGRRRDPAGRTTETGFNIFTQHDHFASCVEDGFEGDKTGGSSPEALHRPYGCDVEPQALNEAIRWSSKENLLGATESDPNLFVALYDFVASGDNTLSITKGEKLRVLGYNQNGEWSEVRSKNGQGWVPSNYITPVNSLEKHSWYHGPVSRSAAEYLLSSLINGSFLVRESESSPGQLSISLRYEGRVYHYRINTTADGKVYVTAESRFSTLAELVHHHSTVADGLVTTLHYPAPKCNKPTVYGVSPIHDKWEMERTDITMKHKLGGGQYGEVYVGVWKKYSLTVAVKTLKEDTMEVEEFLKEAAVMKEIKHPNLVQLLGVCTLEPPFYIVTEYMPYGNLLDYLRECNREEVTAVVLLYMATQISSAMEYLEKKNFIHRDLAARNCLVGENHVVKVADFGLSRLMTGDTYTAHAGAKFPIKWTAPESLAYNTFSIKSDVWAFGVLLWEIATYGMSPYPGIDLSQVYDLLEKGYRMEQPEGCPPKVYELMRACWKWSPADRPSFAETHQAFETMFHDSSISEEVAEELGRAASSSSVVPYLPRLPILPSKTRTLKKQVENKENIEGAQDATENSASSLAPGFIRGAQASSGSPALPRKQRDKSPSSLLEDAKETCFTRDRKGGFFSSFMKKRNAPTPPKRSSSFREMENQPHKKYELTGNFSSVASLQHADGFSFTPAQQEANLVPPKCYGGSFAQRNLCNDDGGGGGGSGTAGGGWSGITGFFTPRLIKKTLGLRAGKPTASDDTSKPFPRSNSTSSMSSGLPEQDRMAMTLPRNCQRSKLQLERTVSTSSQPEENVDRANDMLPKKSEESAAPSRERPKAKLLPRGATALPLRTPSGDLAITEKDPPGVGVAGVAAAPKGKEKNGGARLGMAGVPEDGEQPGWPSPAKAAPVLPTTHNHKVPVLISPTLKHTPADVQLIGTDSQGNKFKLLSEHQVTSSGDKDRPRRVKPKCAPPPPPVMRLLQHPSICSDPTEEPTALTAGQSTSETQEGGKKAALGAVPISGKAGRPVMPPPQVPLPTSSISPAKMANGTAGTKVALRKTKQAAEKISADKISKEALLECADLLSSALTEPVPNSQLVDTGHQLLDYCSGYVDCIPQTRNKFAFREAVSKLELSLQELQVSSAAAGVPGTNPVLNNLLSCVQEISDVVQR

`O=C(Nc1ccc(F)nc1)C1CCCN1c1nc2c(c(Nc3cc(C4CC4)[nH]n3)n1)CCC2` (single isomer, unassigned) [Compound 2b, 1-(4-(5-cyclopropyl-1H-pyrazol-3-ylamino)-6,7-dihydro-5H-cyclopenta[d]pyrimidin-2-yl)-N-(6-fluoropyridin-3-yl)pyrrolidine-2-carboxamide]: the inhibition at 0.01 µM is below 39% at Arg (10 nM, read-out: Average % Inh @ 10 nM); below 39% at EPHA1 (EPHA1, 10 nM, read-out: Average % Inh @ 10 nM); below 39% on MST1 (MST1, 10 nM, read-out: Average % Inh @ 10 nM); below 39% at TYRO3 (TYRO3, 10 nM, read-out: Average % Inh @ 10 nM). Besides, the inhibition at 0.1 µM at Arg (100 nM, read-out: Average % Inh @ 100 nM) was below 39%; on EPHA1 (EPHA1, 100 nM, read-out: Average % Inh @ 100 nM), 40 to 59%; at MST1 (MST1, 100 nM, read-out: Average % Inh @ 100 nM), 40 to 59%; at TYRO3 (TYRO3, 100 nM, read-out: Average % Inh @ 100 nM) it was below 39%. Further, the inhibition at 1 µM on Arg (1 μM, read-out: Average % Inh @ 1 μM) was above 60%; at EPHA1 (EPHA1, 1 μM, read-out: Average % Inh @ 1 μM), above 60%; at EPHA2, above 60%; at EPHA3, 40 to 59%; at FLT4, 40 to 59%; at FRK it was above 60%. Moreover, the inhibition at 1 µM was above 60% on LTK; above 60% at MST1 (MST1, 1 μM, read-out: Average % Inh @ 1 μM); above 60% at TYRO3 (TYRO3, 1 μM, read-out: Average % Inh @ 1 μM).
